From patent US20250145665A1, “MACROCYCLIC PEPTIDES USEFUL AS MODULATORS OF TNF ALPHA” (Bristol-Myers Squibb Company, priority 2023, published 2025) come the findings set out here.

Starred links: 1 amine or outer side, 2 acyl side, 3 side chain; linkers in the order of their positions; H or OH if unused. Positions of bridges follow the written chain, without caps; N, C: chain ends. Non-standard residues stand in square brackets, D forms with d. Residues, ends and D or L forms follow the SMILES beside them. *: point of attachment. Bip(4'-NHCO-C6H4-3-CH2COOH) = N[C@@H](Cc1ccc(-c2ccc(NC(=O)c3cccc(CC(=O)O)c3)cc2)cc1)C(=O)O; Bip(4'-NHCO-C6H4-4-CH2COOH) = N[C@@H](Cc1ccc(-c2ccc(NC(=O)c3ccc(CC(=O)O)cc3)cc2)cc1)C(=O)O; X43 = O=C(O)[C@@H]1CCC[C@H](C(=O)Nc2ccc(-c3ccc(C[C@H](N[*:1])C(=O)[*:2])cc3)cc2)C1; X34 = Cc1cc(C(=O)O)cc(C(=O)Nc2ccc(-c3ccc(C[C@H](N[*:1])C(=O)[*:2])cc3)cc2)c1; X5 = Cn1nc(C(=O)Nc2ccc(-c3ccc(C[C@H](N[*:1])C(=O)[*:2])cc3)cc2)c2ccccc21; Bip(4'-NH) = O=C([C@H](Cc1ccc(-c2ccc(N[*:3])cc2)cc1)N[*:1])[*:2]; Indazole3carbonyl(1-CH2COOH) = O=C(O)Cn1nc(C(=O)*)c2ccccc21; X72 = N=C(N)Nc1ccc(CCNC(=N)NCCC[C@@H](N[*:1])C(=O)[*:2])cc1; X25 = N=C(N)Nc1cccc(CNC(=N)NCCC[C@@H](N[*:1])C(=O)[*:2])c1; Ala(morpholin-4-yl) = N[C@@H](CN1CCOCC1)C(=O)O; Benzoyl(3-OCH2COOH) = O=C(O)COc1cccc(C(=O)*)c1; Bip = N[C@@H](Cc1ccc(-c2ccccc2)cc1)C(=O)O; Cha = N[C@@H](CC1CCCCC1)C(=O)O; Sar = CNCC(=O)O

The target of one experiment is TNFα (Homo sapiens, UniProt P01375). As to the kind of experiment: TNF-Induced HEK-Blue Assay. The experiment is classed as cell-based.
TNFα, sequence (P01375 77-233 limits assumed): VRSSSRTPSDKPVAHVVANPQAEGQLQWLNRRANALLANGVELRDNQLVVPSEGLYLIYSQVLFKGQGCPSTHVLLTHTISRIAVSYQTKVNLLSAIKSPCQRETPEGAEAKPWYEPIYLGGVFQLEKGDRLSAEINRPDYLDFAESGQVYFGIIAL
Conditions: not given
The term IC50 denotes the concentration needed to halve the response being measured. Compound `CC(C)C[C@@H]1NC(=O)[C@H](CCCNC(=N)N)NC(=O)[C@H](C(C)C)NC(=O)[C@@H]2CCCN2C(=O)[C@H](C(C)C)NC(=O)[C@@H](CCCNC(=N)NCc2cccc(NC(=N)N)c2)NC(=O)[C@H](CC(=O)O)NC(=O)[C@@H]2CCCN2C(=O)CN(C)C(=O)[C@H](Cc2ccc(-c3ccc(NC(=O)c4nn(CC(=O)O)c5ccccc45)cc3)cc2)NC(=O)[C@H](Cc2ccc(-c3ccccc3)cc2)NC(=O)[C@H](CN2CCOCC2)NC(=O)CSC[C@@H](C(=O)NCC(N)=O)NC1=O` [Example 435] ({CH2CO}-[Ala(morpholin-4-yl)][Bip][Bip(4'-NH)](Indazole3carbonyl(1-CH2COOH))[Sar]PD[X25]VPVRLCG-NH2; thioether N-13) came in with a half-maximal inhibitory concentration (IC50) of under 50 nM.

The compound `CC(C)C[C@@H]1NC(=O)[C@H](CCCNC(=N)N)NC(=O)[C@H](C(C)C)NC(=O)[C@@H]2CCCN2C(=O)[C@H](C(C)C)NC(=O)[C@@H](CCCNC(=N)NCCc2ccc(NC(=N)N)cc2)NC(=O)[C@H](CC(=O)O)NC(=O)[C@@H]2CCCN2C(=O)CN(C)C(=O)[C@H](Cc2ccc(-c3ccc(NC(=O)c4nn(CC(=O)O)c5ccccc45)cc3)cc2)NC(=O)[C@H](Cc2ccc(-c3ccccc3)cc2)NC(=O)[C@H](CN2CCOCC2)NC(=O)CSC[C@@H](C(=O)NCC(N)=O)NC1=O` [Example 436] ({CH2CO}-[Ala(morpholin-4-yl)][Bip][Bip(4'-NH)](Indazole3carbonyl(1-CH2COOH))[Sar]PD[X72]VPVRLCG-NH2; thioether N-13) showed an IC50 of under 50 nM.

Still in this experiment, the particulars now being: HEK-Blue-CD40L cells, NF-kB-driven secreted alkaline phosphatase reporter; TNFα 0.5 ng/ml; 18 h; read-out: TNF induced HEK-Blue assay IC50 value.
For `CC(C)C[C@@H]1NC(=O)[C@H](CCCNC(=N)N)NC(=O)[C@H](C(C)C)NC(=O)[C@@H]2CCCN2C(=O)[C@H](C(C)C)NC(=O)[C@@H](CCCNC(=N)NCc2cccc(NC(=N)N)c2)NC(=O)[C@H](CC(=O)O)NC(=O)[C@@H]2CCCN2C(=O)CN(C)C(=O)[C@H](Cc2ccc(-c3ccc(NC(=O)c4nn(C)c5ccccc45)cc3)cc2)NC(=O)[C@H](Cc2ccc(-c3ccccc3)cc2)NC(=O)[C@H](CN2CCOCC2)NC(=O)CSC[C@@H](C(=O)NCC(N)=O)NC1=O` [Example 438] ({CH2CO}-[Ala(morpholin-4-yl)][Bip][X5][Sar]PD[X25]VPVRLCG-NH2; thioether N-13), the IC50 lay within 50 to 200 nM.

Regarding `CC(C)C[C@@H]1NC(=O)[C@H](CCCNC(=N)N)NC(=O)[C@H](C(C)C)NC(=O)[C@@H]2CCCN2C(=O)[C@H](C(C)C)NC(=O)[C@@H](CCCNC(=N)NCCc2ccc(NC(=N)N)cc2)NC(=O)[C@H](CC(=O)O)NC(=O)[C@@H]2CCCN2C(=O)CN(C)C(=O)[C@H](Cc2ccc(-c3ccc(NC(=O)c4nn(C)c5ccccc45)cc3)cc2)NC(=O)[C@H](Cc2ccc(-c3ccccc3)cc2)NC(=O)[C@H](CN2CCOCC2)NC(=O)CSC[C@@H](C(=O)NCC(N)=O)NC1=O` [Example 439] ({CH2CO}-[Ala(morpholin-4-yl)][Bip][X5][Sar]PD[X72]VPVRLCG-NH2; thioether N-13), the concentration for half-maximal inhibition (IC50) lay in the range of 50 to 200 nM.

`CC[C@H](C)[C@@H]1NC(=O)[C@@H](CCCNC(=N)N)NC(=O)[C@H](CC(=O)O)NC(=O)[C@H](Cc2cnc[nH]2)NC(=O)CN(C)C(=O)[C@H](Cc2ccc(-c3ccc(NC(=O)c4cccc(OCC(=O)O)c4)cc3)cc2)NC(=O)[C@H](Cc2ccc(-c3ccccc3)cc2)NC(=O)[C@H](CN2CCOCC2)NC(=O)CSC[C@@H](C(=O)NCC(N)=O)NC(=O)[C@H](CC(C)C)NC(=O)[C@H](Cc2cnc[nH]2)NC(=O)[C@H](C(C)C)NC(=O)[C@@H]2CCCN2C1=O` [Example 441] ({CH2CO}-[Ala(morpholin-4-yl)][Bip][Bip(4'-NH)](Benzoyl(3-OCH2COOH))[Sar]HD[dR]IPVHLCG-NH2; thioether N-13): the concentration for half-maximal inhibition (IC50) was under 50 nM.

In the case of `CC[C@H](C)[C@@H]1NC(=O)[C@@H](CCCNC(=N)N)NC(=O)[C@H](CC(=O)O)NC(=O)[C@@H]2CCCN2C(=O)CN(C)C(=O)[C@H](Cc2ccc(-c3ccc(NC(=O)c4cccc(OCC(=O)O)c4)cc3)cc2)NC(=O)[C@H](Cc2ccc(-c3ccccc3)cc2)NC(=O)[C@H](CC2CCCCC2)NC(=O)CSC[C@@H](C(=O)NCC(N)=O)NC(=O)[C@H](CC(C)C)NC(=O)[C@H](Cc2cnc[nH]2)NC(=O)[C@H](C(C)C)NC(=O)[C@@H]2CCCN2C1=O` [Example 442] ({CH2CO}-[Cha][Bip][Bip(4'-NH)](Benzoyl(3-OCH2COOH))[Sar]PD[dR]IPVHLCG-NH2; thioether N-13), the half-inhibitory concentration (IC50) lay in the range of 50 to 200 nM.

As for `CC[C@H](C)[C@@H]1NC(=O)[C@@H](CCCNC(=N)N)NC(=O)[C@H](CC(=O)O)NC(=O)[C@H](Cc2cnc[nH]2)NC(=O)CN(C)C(=O)[C@H](Cc2ccc(-c3ccc(NC(=O)c4cc(C)cc(C(=O)O)c4)cc3)cc2)NC(=O)[C@H](Cc2ccc(-c3ccccc3)cc2)NC(=O)[C@H](CC2CCCCC2)NC(=O)CSC[C@@H](C(=O)NCC(N)=O)NC(=O)[C@H](CC(C)C)NC(=O)[C@H](Cc2cnc[nH]2)NC(=O)[C@H](C(C)C)NC(=O)[C@@H]2CCCN2C1=O` [Example 443] ({CH2CO}-[Cha][Bip][X34][Sar]HD[dR]IPVHLCG-NH2; thioether N-13), the IC50 was under 50 nM.

As to `CC[C@H](C)[C@@H]1NC(=O)[C@@H](CCCNC(=N)N)NC(=O)[C@H](CC(=O)O)NC(=O)[C@H](Cc2cnc[nH]2)NC(=O)CN(C)C(=O)[C@H](Cc2ccc(-c3ccc(NC(=O)c4cccc(CC(=O)O)c4)cc3)cc2)NC(=O)[C@H](Cc2ccc(-c3ccccc3)cc2)NC(=O)[C@H](CC2CCCCC2)NC(=O)CSC[C@@H](C(=O)NCC(N)=O)NC(=O)[C@H](CC(C)C)NC(=O)[C@H](Cc2cnc[nH]2)NC(=O)[C@H](C(C)C)NC(=O)[C@@H]2CCCN2C1=O` [Example 444] ({CH2CO}-[Cha][Bip][Bip(4'-NHCO-C6H4-3-CH2COOH)][Sar]HD[dR]IPVHLCG-NH2; thioether N-13), the IC50 is under 50 nM.

In the case of `CC[C@H](C)[C@@H]1NC(=O)[C@@H](CCCNC(=N)N)NC(=O)[C@H](CC(=O)O)NC(=O)[C@H](Cc2cnc[nH]2)NC(=O)CN(C)C(=O)[C@H](Cc2ccc(-c3ccc(NC(=O)c4ccc(CC(=O)O)cc4)cc3)cc2)NC(=O)[C@H](Cc2ccc(-c3ccccc3)cc2)NC(=O)[C@H](CC2CCCCC2)NC(=O)CSC[C@@H](C(=O)NCC(N)=O)NC(=O)[C@H](CC(C)C)NC(=O)[C@H](Cc2cnc[nH]2)NC(=O)[C@H](C(C)C)NC(=O)[C@@H]2CCCN2C1=O` [Example 445] ({CH2CO}-[Cha][Bip][Bip(4'-NHCO-C6H4-4-CH2COOH)][Sar]HD[dR]IPVHLCG-NH2; thioether N-13), the IC50 is under 50 nM.

`CC[C@H](C)[C@@H]1NC(=O)[C@@H](CCCNC(=N)N)NC(=O)[C@H](CC(=O)O)NC(=O)[C@H](Cc2cnc[nH]2)NC(=O)CN(C)C(=O)[C@H](Cc2ccc(-c3ccc(NC(=O)[C@H]4CCC[C@@H](C(=O)O)C4)cc3)cc2)NC(=O)[C@H](Cc2ccc(-c3ccccc3)cc2)NC(=O)[C@H](CC2CCCCC2)NC(=O)CSC[C@@H](C(=O)NCC(N)=O)NC(=O)[C@H](CC(C)C)NC(=O)[C@H](Cc2cnc[nH]2)NC(=O)[C@H](C(C)C)NC(=O)[C@@H]2CCCN2C1=O` [Example 446] ({CH2CO}-[Cha][Bip][X43][Sar]HD[dR]IPVHLCG-NH2; thioether N-13): the 50% inhibitory concentration (IC50) was in the range of 50 to 200 nM.
